Experiments:
Format in all cases: in vivo
[1] = test system: velvetleaf (Abutilon theophrasti); assay: Test G Pre-Emergence Protocol; settings: Abutilon theophrasti, pre-emergence, 312 h, evaluated after 13 days; for pest or weed control at 15.625 g/ha: 15.625 g ai/ha; for pest or weed control at 15.625 g/ha / pest or weed control at 250 g/ha: read-out: Velvetleaf damage rating (100=total damage to plant; 0=no damage to plant); for pest or weed control at 62.5 g/ha: 62.5 g ai/ha, 100=total damage to plant, 0=no damage to plant, read-out: plant damage rating, Velvetleaf; for pest or weed control at 250 g/ha: 250 g ai/ha
How it was run: (§1)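 Herbicidal effect was rated 13 days post-application on a scale where 100 equals total damage. Spraying took place the day after sowing, using 15.625, 62.5 or 250 g/ha of compound in a 50:50 acetone/water solution with 0.5% Tween 20.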

[2] = test system: giant foxtail (Setaria faberi); assay: Test G Pre-Emergence Protocol; settings: Setaria faberi, pre-emergence, 312 h, evaluated after 13 days; for pest or weed control at 15.625 g/ha: 15.625 g ai/ha; for pest or weed control at 15.625 g/ha / pest or weed control at 250 g/ha: read-out: Foxtail, Giant damage rating (100=total damage to plant; 0=no damage to plant); for pest or weed control at 62.5 g/ha: 62.5 g ai/ha, 100=total damage to plant, 0=no damage to plant, read-out: plant damage rating, Foxtail, Giant; for pest or weed control at 250 g/ha: 250 g ai/ha
How it was run: as §1

[3] = test system: ivy-leaved morning glory (Ipomoea hederacea); assay: Test G Pre-Emergence Protocol; settings: Ipomoea, pre-emergence, 312 h, evaluated after 13 days; for pest or weed control at 62.5 g/ha: 62.5 g ai/ha, 100=total damage to plant, 0=no damage to plant, read-out: plant damage rating, Morningglory, Ivy-leaved; for pest or weed control at 15.625 g/ha: 15.625 g ai/ha, read-out: Morning-glory, Ivy-leaved damage rating (100=total damage to plant; 0=no damage to plant); for pest or weed control at 250 g/ha: 250 g ai/ha, read-out: Morningglory, Ivy-leaved damage rating (100=total damage to plant; 0=no damage to plant)
How it was run: as §1

[4] = test system: barnyardgrass (Echinochloa crus-galli); assay: Test G Pre-Emergence Protocol; settings: Echinochloa crus-galli, pre-emergence, 312 h, evaluated after 13 days; for pest or weed control at 15.625 g/ha: 15.625 g ai/ha, read-out: Barnyard grass damage rating (100=total damage to plant; 0=no damage to plant); for pest or weed control at 62.5 g/ha: 62.5 g ai/ha, 100=total damage to plant, 0=no damage to plant, read-out: plant damage rating, Barnyardgrass; for pest or weed control at 250 g/ha: 250 g ai/ha, read-out: Barnyardgrass damage rating (100=total damage to plant; 0=no damage to plant)
How it was run: as §1

corn (Zea mays) [5] = assay: Test G Pre-Emergence Protocol; settings: Zea mays, pre-emergence, 312 h, evaluated after 13 days; for plant injury at 15.625 g/ha: 15.625 g ai/ha; for plant injury at 15.625 g/ha / plant injury at 250 g/ha: read-out: Corn damage rating (100=total damage to plant; 0=no damage to plant); for plant injury at 62.5 g/ha: 62.5 g ai/ha, 100=total damage to plant, 0=no damage to plant, read-out: plant damage rating, Corn; for plant injury at 250 g/ha: 250 g ai/ha
How it was run: as §1

[6] = test system: redroot pigweed (Amaranthus retroflexus); assay: Test G Pre-Emergence Protocol; settings: Amaranthus retroflexus, pre-emergence, 312 h, evaluated after 13 days; for pest or weed control at 15.625 g/ha: 15.625 g ai/ha; for pest or weed control at 15.625 g/ha / pest or weed control at 250 g/ha: read-out: Pigweed, Redroot damage rating (100=total damage to plant; 0=no damage to plant); for pest or weed control at 62.5 g/ha: 62.5 g ai/ha, 100=total damage to plant, 0=no damage to plant, read-out: plant damage rating, Pigweed, Redroot; for pest or weed control at 250 g/ha: 250 g ai/ha
How it was run: as §1

[7] = test system: velvetleaf (Abutilon theophrasti); assay: Test G Post-Emergence Protocol; settings: Abutilon theophrasti, post-emergence, 312 h; for pest or weed control at 15.625 g/ha: 15.625 g ai/ha, evaluated after 13 days (100=total damage to plant; 0=no damage to plant), read-out: Velvetleaf damage rating; for pest or weed control at 62.5 g/ha: 62.5 g ai/ha, read-out: Velvetleaf damage rating (100=total damage to plant; 0=no damage to plant); for pest or weed control at 62.5 g/ha / pest or weed control at 250 g/ha: evaluated after 13 days; for pest or weed control at 250 g/ha: 250 g ai/ha, read-out: damage to plant, Velvetleaf (100=total damage to plant; 0=no damage to plant)
How it was run: (§2)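 Post-emergence herbicidal damage, scored visually 0–100 at 13 days. Application at 15.625, 62.5 or 250 g/ha onto 8-day-old plants grown under glasshouse control.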

[8] = test system: giant foxtail (Setaria faberi); assay: Test G Post-Emergence Protocol; settings: Setaria faberi, post-emergence, 312 h; for pest or weed control at 15.625 g/ha: 15.625 g ai/ha, evaluated after 13 days (100=total damage to plant; 0=no damage to plant), read-out: Foxtail, Giant damage rating; for pest or weed control at 62.5 g/ha: 62.5 g ai/ha, read-out: Foxtail, Giant damage rating (100=total damage to plant; 0=no damage to plant); for pest or weed control at 62.5 g/ha / pest or weed control at 250 g/ha: evaluated after 13 days; for pest or weed control at 250 g/ha: 250 g ai/ha, read-out: damage to plant, Foxtail, Giant (100=total damage to plant; 0=no damage to plant)
How it was run: as §2

[9] = test system: ivy-leaved morning glory (Ipomoea hederacea); assay: Test G Post-Emergence Protocol; settings: Ipomoea, post-emergence, 312 h; for pest or weed control at 15.625 g/ha: 15.625 g ai/ha, evaluated after 13 days (100=total damage to plant; 0=no damage to plant), read-out: Morningglory, Ivy-leaved damage rating; for pest or weed control at 62.5 g/ha: 62.5 g ai/ha, read-out: Morningglory, Ivy-leaved damage rating (100=total damage to plant; 0=no damage to plant); for pest or weed control at 62.5 g/ha / pest or weed control at 250 g/ha: evaluated after 13 days; for pest or weed control at 250 g/ha: 250 g ai/ha, read-out: damage to plant, Morningglory, Ivy-leaved (100=total damage to plant; 0=no damage to plant)
How it was run: as §2

[10] = test system: barnyardgrass (Echinochloa crus-galli); assay: Test G Post-Emergence Protocol; settings: Echinochloa crus-galli, post-emergence, 312 h; for pest or weed control at 15.625 g/ha: 15.625 g ai/ha, evaluated after 13 days (100=total damage to plant; 0=no damage to plant), read-out: Barnyardgrass damage rating; for pest or weed control at 62.5 g/ha: 62.5 g ai/ha, read-out: Barnyardgrass damage rating (100=total damage to plant; 0=no damage to plant); for pest or weed control at 62.5 g/ha / pest or weed control at 250 g/ha: evaluated after 13 days; for pest or weed control at 250 g/ha: 250 g ai/ha, read-out: damage to plant, Barnyardgrass (100=total damage to plant; 0=no damage to plant)
How it was run: as §2

corn (Zea mays) [11] = assay: Test G Post-Emergence Protocol; settings: Zea mays, post-emergence, 312 h; for plant injury at 15.625 g/ha: 15.625 g ai/ha, evaluated after 13 days (100=total damage to plant; 0=no damage to plant), read-out: Corn damage rating; for plant injury at 62.5 g/ha: 62.5 g ai/ha, read-out: Corn damage rating (100=total damage to plant; 0=no damage to plant); for plant injury at 62.5 g/ha / plant injury at 250 g/ha: evaluated after 13 days; for plant injury at 250 g/ha: 250 g ai/ha, read-out: damage to plant, Corn (100=total damage to plant; 0=no damage to plant)
How it was run: as §2

[12] = test system: redroot pigweed (Amaranthus retroflexus); assay: Test G Post-Emergence Protocol; settings: Amaranthus retroflexus, post-emergence, 312 h; for pest or weed control at 15.625 g/ha: 15.625 g ai/ha, evaluated after 13 days (100=total damage to plant; 0=no damage to plant), read-out: Pigweed, Redroot damage rating; for pest or weed control at 62.5 g/ha: 62.5 g ai/ha, read-out: Pigweed, Redroot damage rating (100=total damage to plant; 0=no damage to plant); for pest or weed control at 62.5 g/ha / pest or weed control at 250 g/ha: evaluated after 13 days; for pest or weed control at 250 g/ha: 250 g ai/ha, read-out: damage to plant, Pigweed, Redroot (100=total damage to plant; 0=no damage to plant)
How it was run: as §2

Row | SMILES | pest or weed control at 15.625 g/ha [1] | pest or weed control at 62.5 g/ha [1] | pest or weed control at 250 g/ha [1] | pest or weed control at 15.625 g/ha [2] | pest or weed control at 62.5 g/ha [2] | pest or weed control at 250 g/ha [2] | pest or weed control at 62.5 g/ha [3] | pest or weed control at 15.625 g/ha [4] | pest or weed control at 62.5 g/ha [4] | pest or weed control at 250 g/ha [4] | plant injury at 15.625 g/ha (corn (Zea mays) [5]) | plant injury at 62.5 g/ha (corn (Zea mays) [5]) | plant injury at 250 g/ha (corn (Zea mays) [5]) | pest or weed control at 15.625 g/ha [6] | pest or weed control at 62.5 g/ha [6] | pest or weed control at 250 g/ha [6] | pest or weed control at 15.625 g/ha [7] | pest or weed control at 62.5 g/ha [7] | pest or weed control at 250 g/ha [7] | pest or weed control at 15.625 g/ha [8] | also measured
1 | CN1C[C@H](c2ccc3ccccc3c2)[C@@H](C(=O)Nc2cccc(F)c2F)C1=O (racemic) [Compound 1501] | 0% | 0% | 0% | 0% | 70% | 80% | 0% | 0% | 50% | 60% | 0% | 0% | 0% | 0% | 0% | 0% | 0% | 0% | 0% | 40% | pest or weed control at 62.5 g/ha [8]: 60%; pest or weed control at 250 g/ha [8]: 60%; pest or weed control at 15.625 g/ha [9]: 0%; pest or weed control at 62.5 g/ha [9]: 0%; pest or weed control at 250 g/ha [9]: 0%; pest or weed control at 15.625 g/ha [10]: 10%; pest or weed control at 62.5 g/ha [10]: 50%; pest or weed control at 250 g/ha [10]: 60%; plant injury at 15.625 g/ha (corn (Zea mays) [11]): 10%; plant injury at 62.5 g/ha (corn (Zea mays) [11]): 20%; plant injury at 250 g/ha (corn (Zea mays) [11]): 30%; pest or weed control at 15.625 g/ha [12]: 0%; pest or weed control at 62.5 g/ha [12]: 0%; pest or weed control at 250 g/ha [12]: 0%
2 | Cc1cnc(NC(=O)[C@@H]2C(=O)N(C)C[C@H]2c2ccc(C(F)(F)F)cc2)nn1 (racemic) [Compound 1508] | 0% | 0% | 0% | 0% | 0% | 0% | 0% | 0% | 0% | 0% | 0% | 0% | 0% | 0% | 0% | 0% | 0% | 0% | 0% | 0% | pest or weed control at 15.625 g/ha [3]: 0%; pest or weed control at 250 g/ha [3]: 0%; pest or weed control at 62.5 g/ha [8]: 0%; pest or weed control at 250 g/ha [8]: 0%; pest or weed control at 15.625 g/ha [9]: 0%; pest or weed control at 62.5 g/ha [9]: 0%; pest or weed control at 250 g/ha [9]: 0%; pest or weed control at 15.625 g/ha [10]: 0%; pest or weed control at 62.5 g/ha [10]: 0%; pest or weed control at 250 g/ha [10]: 0%; plant injury at 15.625 g/ha (corn (Zea mays) [11]): 0%; plant injury at 62.5 g/ha (corn (Zea mays) [11]): 0%; plant injury at 250 g/ha (corn (Zea mays) [11]): 0%; pest or weed control at 15.625 g/ha [12]: 0%; pest or weed control at 62.5 g/ha [12]: 0%; pest or weed control at 250 g/ha [12]: 0%
3 | CN1C[C@@H](c2ccc(C(F)(F)F)cc2)[C@H](C(=O)Nc2cc(F)ncn2)C1=O (racemic) [Compound 1509] | 0% | 0% | 0% | 0% | 0% | 0% | 0% | 0% | 0% | 0% | 0% | 0% | 0% | 0% | 0% | 0% | 0% | 0% | 0% | 0% | pest or weed control at 15.625 g/ha [3]: 0%; pest or weed control at 250 g/ha [3]: 0%; pest or weed control at 62.5 g/ha [8]: 0%; pest or weed control at 250 g/ha [8]: 0%; pest or weed control at 15.625 g/ha [9]: 0%; pest or weed control at 62.5 g/ha [9]: 0%; pest or weed control at 250 g/ha [9]: 0%; pest or weed control at 15.625 g/ha [10]: 0%; pest or weed control at 62.5 g/ha [10]: 0%; pest or weed control at 250 g/ha [10]: 0%; plant injury at 15.625 g/ha (corn (Zea mays) [11]): 0%; plant injury at 62.5 g/ha (corn (Zea mays) [11]): 0%; plant injury at 250 g/ha (corn (Zea mays) [11]): 0%; pest or weed control at 15.625 g/ha [12]: 0%; pest or weed control at 62.5 g/ha [12]: 0%; pest or weed control at 250 g/ha [12]: 0%

Source: patent US12077503B2, “Substituted cyclic amides and their use as herbicides” (FMC CORPORATION, priority 2015, dated 2024)
